In paper PMC10897476, “Pyridylpiperazine efflux pump inhibitor boosts in vivo antibiotic efficacy against K. pneumoniae” (EMBO Molecular Medicine, 2023):
“And” between values parts separate entries of the source, which are not always exact repeats. Equal values may be shown once. Where a SMILES comes first, the peptide text is derived from it.

Columns and labels:
Format in all cases: cell-based, Klebsiella pneumoniae
[1] = tested on: K. pneumoniae ATCC 43816 (WT); test: Checkerboard assay levofloxacin x EPI, WT strain; settings: for checkerboard growth readout: ATCC43816 WT, levofloxacin 0 ng/mL; for percentage resazurin turnover: individual replicates, listed as PABN; for Median REMA values (percentage resazurin turnover): median n=3
Method: (§1) MIC experiments were carried out according to the CLSI guidelines (CLSI [2023]). Overnight cultures were diluted to an OD600 = 0.001 in CAMHB followed by addition of efflux pump inhibitors (EPIs) at a final concentration of 100 µM. […] Plates were incubated at 37 °C for up to 20 h. Bacterial viability was evaluated using the resazurin microtitre assay (REMA) and measured by fluorescence using a Tecan Spaert multimode plate reader (Ex: 530 nm Em: 590 nm). MICs were defined as the concentration that prevented 90% of resazurin turnover compared to the non-treated bacteria.
(§2) Bacterial suspensions, incubation and plate readouts were carried out as described above.

K. pneumoniae AcrB^V448E [2] = test: MIC of antibiotics with and without EPI (REMA), AcrB V448E mutant; settings: K. pneumoniae-AcrB^V448E, Table 2
Method: as §1
Mutations in acrB or ramR identified in the BDM88855.HCl (1’) resistant mutant (a.k.a., KPJC11) were introduced individually into K. pneumoniae ATCC 43816 chromosome by allelic exchange (Cianfanelli et al, [2020]). Briefly, 1-kb PCR products centred around each point mutation were generated by amplifying acrB with primers RH1251 ([…][…]) and RH1252 ([…][…]) or ramR with primers RH1249 ([…][…]) and RH1250 ([…][…]) from KPJC11 genomic DNA. PCR fragments were cloned into pFOK (Cianfanelli et al, [2020]) using NEB-building kit ([New England Biolabs]) to generate pEP1533 and pEP1534. Correct plasmids were confirmed by sequencing and introduced into K. pneumoniae ATCC43816 WT via conjugation with the MFDpir+ E. coli donor strain. Exconjugants were selected on kanamycin (50 mg/L) plates at 37 °C and plasmid chromosomal integration was checked by PCR. […] The next day, cultures were diluted and plated onto LB agar. Isolated colonies were then patched onto LB plates with or without kanamycin (50 mg/L) and Km^S candidates were evaluated for correct allelic exchange via acrB or ramR sequencing and then WGS to confirm no additional mutations were introduced.

[3] = tested on: K. pneumoniae RamR^mut (K124*stop); test: Checkerboard assay levofloxacin x EPI, RamR mutant; settings: for checkerboard growth readout: ATCC43816 ramRmut, levofloxacin 0 ng/mL
Method: as §1, §2

K. pneumoniae AcrB^V448E [4] = test: Checkerboard assay levofloxacin x EPI, AcrB V448E mutant; settings: for checkerboard growth readout: ATCC43816 AcrBV448E, levofloxacin 0 ng/mL; for Median REMA values / percentage resazurin turnover: Lev 0.00 ng/mL
Method: as §1, §2

[5] = tested on: K. pneumoniae AcrB^V448E RamR^mut; test: Checkerboard assay levofloxacin x EPI, double mutant; settings: ATCC43816 AcrBV448E ramRmut, levofloxacin 0 ng/mL
Method: as §1, §2

SMILES: NC(N)=NCCC[C@H](NC(=O)[C@@H](N)Cc1ccccc1)C(=O)Nc1ccc2ccccc2c1 [PAβN] (HELM PEPTIDE1{F.R.[c1ccc2cc(N[*:1])ccc2c1]}$$$$V2.0)
- checkerboard growth readout ([1]; EPI 2.3 µM): 75
- checkerboard growth readout ([1]; EPI 4.7 µM): 87
- checkerboard growth readout ([1]; EPI 9.4 µM): 110
- checkerboard growth readout ([1]; EPI 19 µM): 116
- checkerboard growth readout ([1]; EPI 38 µM): 154
- checkerboard growth readout ([1]; EPI 75 µM): 143
- checkerboard growth readout ([1]; EPI 150 µM): 129
- checkerboard growth readout ([1]; EPI 300 µM): 135
- percentage resazurin turnover ([1]; Lev 0.00 ng/mL + EPI 2.34 uM): 100% and 75% and 71%
- Median REMA values (percentage resazurin turnover) ([1]; Lev 0.00 ng/mL + EPI 2.34 uM): 75%
- percentage resazurin turnover ([1]; Lev 0.00 ng/mL + EPI 4.69 uM): 108% and 87% and 69%
- Median REMA values (percentage resazurin turnover) ([1]; Lev 0.00 ng/mL + EPI 4.69 uM): 87%
- percentage resazurin turnover ([1]; Lev 0.00 ng/mL + EPI 9.38 uM): 112% and 110% and 90%
- Median REMA values (percentage resazurin turnover) ([1]; Lev 0.00 ng/mL + EPI 9.38 uM): 110%
- percentage resazurin turnover ([1]; Lev 0.00 ng/mL + EPI 18.75 uM): 116% and 136% and 109%
- Median REMA values (percentage resazurin turnover) ([1]; Lev 0.00 ng/mL + EPI 18.75 uM): 116%
- percentage resazurin turnover ([1]; Lev 0.00 ng/mL + EPI 37.50 uM): 154% and 197% and 115%
- Median REMA values (percentage resazurin turnover) ([1]; Lev 0.00 ng/mL + EPI 37.50 uM): 154%
- percentage resazurin turnover ([1]; Lev 0.00 ng/mL + EPI 75.00 uM): 134% and 143% and 152%
- Median REMA values (percentage resazurin turnover) ([1]; Lev 0.00 ng/mL + EPI 75.00 uM): 143%
- percentage resazurin turnover ([1]; Lev 0.00 ng/mL + EPI 150.00 uM): 129% and 156% and 124%
- Median REMA values (percentage resazurin turnover) ([1]; Lev 0.00 ng/mL + EPI 150.00 uM): 129%
- percentage resazurin turnover ([1]; Lev 0.00 ng/mL + EPI 300 uM): 162% and 135% and 125%
- Median REMA values (percentage resazurin turnover) ([1]; Lev 0.00 ng/mL + EPI 300 uM): 135%
- susceptibility of the strain to antibiotic boosting by the EPI, in words (K. pneumoniae AcrB^V448E [2]): remained sensitive
- checkerboard growth readout ([3]; EPI 2.3 µM): 83
- checkerboard growth readout ([3]; EPI 4.7 µM): 85
- checkerboard growth readout ([3]; EPI 9.4 µM): 97
- checkerboard growth readout ([3]; EPI 19 µM): 113
- checkerboard growth readout ([3]; EPI 38 µM): 126
- checkerboard growth readout ([3]; EPI 75 µM): 200
- checkerboard growth readout ([3]; EPI 150 µM): 177
- checkerboard growth readout ([3]; EPI 300 µM): 157
- reversion of RamR-mediated levofloxacin resistance, in words ([3]; K. pneumoniae RamR^mut): only be partially reverted
- checkerboard growth readout (K. pneumoniae AcrB^V448E [4]; EPI 2.3 µM): 91
- checkerboard growth readout (K. pneumoniae AcrB^V448E [4]; EPI 4.7 µM): 95
- checkerboard growth readout (K. pneumoniae AcrB^V448E [4]; EPI 9.4 µM): 107
- checkerboard growth readout (K. pneumoniae AcrB^V448E [4]; EPI 19 µM): 112
- checkerboard growth readout (K. pneumoniae AcrB^V448E [4]; EPI 38 µM): 147
- checkerboard growth readout (K. pneumoniae AcrB^V448E [4]; EPI 75 µM): 161
- checkerboard growth readout (K. pneumoniae AcrB^V448E [4]; EPI 150 µM): 143
- checkerboard growth readout (K. pneumoniae AcrB^V448E [4]; EPI 300 µM): 143
- boosting of levofloxacin activity, in words (K. pneumoniae AcrB^V448E [4]; K. pneumoniae AcrB^V448E): maintained
- Median REMA values (K. pneumoniae AcrB^V448E [4]; PABN 2.34 uM): 91%
- percentage resazurin turnover (K. pneumoniae AcrB^V448E [4]; PABN 2.34 uM): 108% and 91% and 74%
- Median REMA values (K. pneumoniae AcrB^V448E [4]; PABN 4.69 uM): 95%
- percentage resazurin turnover (K. pneumoniae AcrB^V448E [4]; PABN 4.69 uM): 95% and 102% and 74%
- Median REMA values (K. pneumoniae AcrB^V448E [4]; PABN 9.38 uM): 107%
- percentage resazurin turnover (K. pneumoniae AcrB^V448E [4]; PABN 9.38 uM): 113% and 107% and 80%
- Median REMA values (K. pneumoniae AcrB^V448E [4]; PABN 18.75 uM): 112%
- percentage resazurin turnover (K. pneumoniae AcrB^V448E [4]; PABN 18.75 uM): 120% and 112%
- Median REMA values (K. pneumoniae AcrB^V448E [4]; PABN 37.50 uM): 147%
- percentage resazurin turnover (K. pneumoniae AcrB^V448E [4]; PABN 37.50 uM): 147% and 150% and 121%
- Median REMA values (K. pneumoniae AcrB^V448E [4]; PABN 75.00 uM): 161%
- percentage resazurin turnover (K. pneumoniae AcrB^V448E [4]; PABN 75.00 uM): 161% and 123% and 162%
- Median REMA values (K. pneumoniae AcrB^V448E [4]; PABN 150.00 uM): 143%
- percentage resazurin turnover (K. pneumoniae AcrB^V448E [4]; PABN 150.00 uM): 143% and 146% and 114%
- Median REMA values (K. pneumoniae AcrB^V448E [4]; PABN 300 uM): 143%
- percentage resazurin turnover (K. pneumoniae AcrB^V448E [4]; PABN 300 uM): 143% and 112%
- checkerboard growth readout ([5]; EPI 2.3 µM): 79
- checkerboard growth readout ([5]; EPI 4.7 µM): 95
- checkerboard growth readout ([5]; EPI 9.4 µM): 80
- checkerboard growth readout ([5]; EPI 19 µM): 121
- checkerboard growth readout ([5]; EPI 38 µM): 158
- checkerboard growth readout ([5]; EPI 75 µM): 211
- checkerboard growth readout ([5]; EPI 150 µM): 226
- checkerboard growth readout ([5]; EPI 300 µM): 191
